Common to all, as to experiment: inhibition of tumour cell growth, NCI panel, 48 h
The subject of assay [1] is SF-268 CNS.
The subject of assay [2] is KM20L2 colon.
Assay [3] concerns 786-0 renal.
Assay [4] relates to HOP-62 NSCLC.
Assay [5] has as its system M14 melanoma.
In assay [6] the test system is U251 CNS.
Assay [7] deals with LXFL 529 NSCLC.
Assay [8] concerns SNB-19 CNS.
Assay [9] concerns SK-MEL-28 melanoma.
In assay [10] the test system is NCI-H226 lung.

Nine compounds from PubChem BioAssay (NCI) can be followed below.

Molecules are shown by their SMILES. Values joined by “and” are separate entries in the source; they are usually repeats but may differ in a detail not shown here. Identical values can stand only once.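 Step 1: Grow cells in 96-well plates. Step 2: Expose to compound for 48 hours at 5 concentrations. Step 3: Interpolate endpoints linearly; if unreached, use highest concentration. Here, GI50 denotes the concentration required for 50% inhibition of growth. At the TGI there is no net growth.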 Active and inactive are the calls of the source. No stated cut-off is given here; in the data, active means GI50 below about 0.43 µM; inactive means the rest.

Regarding `O=[N+]([O-])c1cccc(C2N3CCCCC3[C@@H]3c4[nH]c5ccccc5c4CCN23)c1` (some centres not stated), the TGI in assay [1] came to 27.4 µM; in [2], 22.9 µM; in assay [3], 43.3 µM; in assay [4], 30.2 µM; in assay [5], 28 µM; in [6], 28.4 µM. Besides, the TGI in assay [7] came to 60.8 µM; in [8], 45.6 µM; in assay [9], 29.8 µM.

Regarding `COc1cc(/C=C(\C#N)C(=O)c2ccccc2)ccc1OCc1ccccc1`, the TGI in [10], in [2], in assay [3], in [4], in assay [5] and in [8] was over 100 µM throughout. In [9], this compound registered a TGI of over 100 µM.

In the case of `CC(=O)Nc1ccc(C(=O)NN2C(=O)C(Cl)C2c2ccc(Cl)cc2)cc1` (configuration not stated), the TGI in [1] was over 86.3 µM; in assay [10], over 92.1 µM; in [3], 40.3 µM; in assay [4], 57.8 µM; in assay [5], over 100 µM; in [6], over 56.7 µM. Further, the TGI in [7] was over 100 µM; in assay [8], 59.2 µM; in assay [9], over 100 µM.

On to `Cc1c[nH]c2c(O)cc3c(c12)[C@H](CCl)CN3C(=O)c1cc2cc(NC(=O)Nc3ccc4[nH]c(C(=O)N5C[C@@H](CCl)c6c5cc(O)c5[nH]cc(C)c65)cc4c3)ccc2[nH]1`, for which the TGI in assay [1] was 58.9 nM and 82.3 µM and 0.00887 µg/mL; in [10], 15.9 µM; in assay [4], 18.9 µM and 8.9e-07 µg/mL and 0.000888 µg/mL. The result in assay [2] was inactive. In addition, the GI50 in assay [3] was 0.000203 µM; in assay [5], 0.00359 µM.

Regarding `NC(=O)C(=Cc1ccc(C(O)P(=O)(O)O)cc1)C(N)=O` (configuration not stated), the TGI in [2], in [3], in [4], in assay [5], in assay [6] and in [7] was over 100 µM throughout. For the same compound, the TGI in assay [8] and in assay [9] was over 100 µM each time.

On to `Cn1c([N+](=O)[O-])cnc1/C=C1\Oc2ccccc2C1=O`, for which the GI50 in [1] was 0.303 µM; in assay [10], 1.68 µM; in assay [3] it was 0.203 µM; in [4], 1.07 µM; in assay [5], 0.32 µM; in assay [6], 1.19 µM. For the same compound, the GI50 is 1.47 µM in assay [8] and 0.43 µM in assay [9]. Further, the TGI in [1] was found to be 1.66 µM; in assay [10], 4.91 µM; in [3], 3.67 µM; in assay [4], 4.42 µM; in [5], 2.51 µM; in assay [6], 4.05 µM. In addition, the TGI in assay [8] is 5.58 µM; in assay [9], 3.36 µM.

On to `CC(C)=CCCC(C)c1ccc(C)c2c1OCN(CC1CCNCC1)C2` (configuration not stated), for which the GI50 in assay [1] was 16.6 µM; in [10] it was 17.7 µM; in [3], 12.2 µM; in assay [4], 14.8 µM; in assay [5], 10.2 µM; in assay [6], 2.75 µM. In addition, the GI50 is 14 µM in assay [8] and 15.7 µM in [9]. In addition, the TGI in assay [1] stood at 33.3 µM; in assay [10], 33.8 µM; in assay [3], 26.3 µM; in [4] it was 28.7 µM; in assay [5] it was 24.5 µM; in [6] it was 7.61 µM. Further, the values for the TGI in assay [8] and in [9] were 29.4 µM and 29.3 µM, respectively.

For the compound `COC(=O)CCc1cc(OC)c2c(c1)C(C(=O)OC)C(c1ccc(OC)c(OC)c1)O2` (configuration not stated), the GI50 in assay [1] is > 100 µM and 37.9 µM; in assay [3], > 100 µM and 40.9 µM; in [4], > 100 µM and 36.6 µM; in assay [5], > 100 µM and 11.6 µM; in assay [6], > 100 µM and 13.3 µM; in [8], > 100 µM and 15.8 µM. Moreover, the GI50 in assay [9] was 21.9 µM and > 100 µM. The TGI is over 100 µM in assay [1]; > 100 µM and 54.5 µM in assay [10]; over 100 µM in [3]; over 100 µM in assay [4]; over 100 µM in [5]; over 100 µM in assay [6]. Further, the TGI in [8] and in assay [9] was over 100 µM each time.

As to `O=S(=O)(NC1=NCCN1C(=S)SN1CCn2c1nsc2=S)c1ccc(Br)cc1`, the GI50 in assay [1] was 39.4 µM; in [10], 40.2 µM; in [3], 31 µM; in assay [4] it was 52.4 µM; in assay [5], 68.8 µM; in assay [6], 38.9 µM. Further, the values for the GI50 in assay [8] and in [9] were over 100 µM and 72.5 µM, respectively. Further, the TGI in assay [1], in assay [10], in assay [3], in [4], in assay [5] and in assay [6] was over 100 µM throughout. Besides, the TGI in assay [8] and in assay [9] was over 100 µM in each case.
